Reference: paper PMC8468421, “Synthesis and Biological Evaluation of 1,2,3-Triazole Tethered Thymol-1,3,4-Oxadiazole Derivatives as Anticancer and Antimicrobial Agents” (Pharmaceuticals, 2021)

Experiments:
[1] = test system: E. coli (ATCC 31218); test: Antimicrobial activity, agar well zone of inhibition, E. coli; type: cell-based, Escherichia coli; settings: 10 μL of 10 mg/mL in 50% DMSO per well, overnight 37 °C, --- = no zone of inhibition; for zone of inhibition at 10000 µg/mL: Escherichia coli, ATCC31218
Experimental: (§1) The antimicrobial activity of the final compounds was performed by reported methods.The bacterial strains, E. coli (Gram negative), S. aureus (Gram positive), and fungi, Candida albicans, were used for the study. Luria broth Agar and Sabouraud Dextrose Agar were prepared into a petri dish using 25 mL of autoclaved media; 100 μL of diluted broth of freshly prepared E. coli, S. aureus, and C. albicans were spread on Luria Broth Agar and Sabouraud Agar plates, respectively. Then, 7 wells of 50 μL capacity were punched on each plate. Samples 5–18 (10 μL of 10 mg/mL standard prepared in 50% DMSO) were placed in each plate’s well in different plate sets. All the plates were incubated for overnight at 37 °C in an incubator shaker. The inhibition zone was calculated in triplicate.

[2] = test system: S. aureus (ATCC 29213); test: Antimicrobial activity, agar well zone of inhibition, S. aureus; type: cell-based, Staphylococcus aureus; settings: 10 μL of 10 mg/mL in 50% DMSO per well, overnight 37 °C, --- = no zone of inhibition; for zone of inhibition at 10000 µg/mL: Staphylococcus aureus, ATCC29213
Experimental: as §1

[3] = test system: C. albicans (ATCC 10231); test: Antifungal activity, agar well zone of inhibition, C. albicans; type: cell-based, Candida albicans; settings: 10 μL of 10 mg/mL in 50% DMSO per well, overnight 37 °C, --- = no zone of inhibition; for zone of inhibition at 10000 µg/mL: Candida albicans, ATCC10231
Experimental: as §1

[4] = test system: MCF-7; test: Antiproliferative activity, MTT assay, MCF-7; settings: for IC50: Homo sapiens, MCF7, read-out: Cytotoxicity IC50 MCF-7; for times active relative to 5-florouracil, MCF-7: (IC50 18.74 μM)
Source text: (§2) The compounds were screened on breast (MCF-7), liver (HepG2), and colorectal (HCT-116) cancer cells, obtained from American Type culture Collection (ATCC); 0.1% of DMSO was used as a vehicle control.

[5] = test system: HCT-116; test: Antiproliferative activity, MTT assay, HCT-116; settings: Homo sapiens, HCT-116, read-out: Cytotoxicity IC50 HCT-116
Source text: as §2

[6] = test system: HepG2; test: Antiproliferative activity, MTT assay, HepG2; settings: for IC50: Homo sapiens, HepG2, read-out: Cytotoxicity IC50 HepG2
Source text: as §2

[7] = biological target: Thymidylate synthase (TS) (Homo sapiens, UniProt P04818); test: Thymidylate synthase (TS) enzymatic assay
Sequence of Thymidylate synthase (TS) (P04818 whole entry): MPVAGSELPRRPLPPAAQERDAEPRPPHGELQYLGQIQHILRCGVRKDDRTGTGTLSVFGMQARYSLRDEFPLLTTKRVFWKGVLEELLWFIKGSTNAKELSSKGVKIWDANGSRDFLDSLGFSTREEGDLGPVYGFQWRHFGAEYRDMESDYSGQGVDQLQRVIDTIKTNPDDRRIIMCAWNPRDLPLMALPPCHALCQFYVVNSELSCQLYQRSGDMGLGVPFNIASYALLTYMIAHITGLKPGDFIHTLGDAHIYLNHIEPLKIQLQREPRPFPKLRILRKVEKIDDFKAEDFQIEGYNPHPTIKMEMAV

Row | SMILES | zone of inhibition E. coli [1] [mm] | zone of inhibition at 10000 µg/mL [1] [mm] | zone of inhibition S. aureus [2] [mm] | zone of inhibition at 10000 µg/mL [2] [mm] | zone of inhibition C. albicans [3] [mm] | zone of inhibition at 10000 µg/mL [3] [mm] | melting point [°C] | IC50 [4] [µM] | IC50 [5] [µM] | IC50 [6] [µM] | fold active relative to 5-FU, HepG2 [6] [fold] | IC50 [7] [µM] | times active relative to 5-florouracil, MCF-7 [4] [times]
1 | C#CCSc1nnc(COc2cc(C)ccc2C(C)C)o1 [Compound 5, 2-((2-isopropyl-5-methylphenoxy)methyl)-5-(prop-2-ynylthio)-1,3,4-oxadiazole] | 12 ± 0.32 | 12 | 9 ± 0.30 | 9 | 10 ± 0.32 | 10 | 58 to 60 |  |  |  |  |  | 
2 | O=c1[nH]cc(F)c(=O)[nH]1 [Compound 5-FU, 5-fluorouracil, reference compound] |  |  |  |  |  |  |  | 18.7 | 30.7 | 28.7 |  |  | 
3 | Cc1ccc(C(C)C)c(OCc2nnc(SCc3cn(-c4ccccc4)nn3)o2)c1 [Compound 6, 4-((5-((2-isopropyl-5-methylphenoxy)methyl)-1,3,4-oxadiazol-2-ylthio)methyl)-1-phenyl-1H-1,2,3-triazole] | 14 ± 0.38 | 14 | 10 ± 0.40 | 10 |  |  | 88 to 90 | 22.5 | 36.5 | 41.6 |  |  | 
4 | COc1ccccc1-n1cc(CSc2nnc(COc3cc(C)ccc3C(C)C)o2)nn1 [Compound 7, 4-((5-((2-isopropyl-5-methylphenoxy)methyl)-1,3,4-oxadiazol-2-ylthio)methyl)-1-(2-methoxyphenyl)-1H-1,2,3-triazole] | 12 ± 0.34 | 12 | 12 ± 0.34 | 12 |  |  | 81 to 83 | 2.4 | 3.1 | 1.8 | 16 | 3.52 ± 1.2 | 
5 | Cc1ccc(C(C)C)c(OCc2nnc(SCc3cn(-c4cccc(C(=O)O)c4)nn3)o2)c1 [Compound 8, 3-(4-((5-((2-isopropyl-5-methylphenoxy)methyl)-1,3,4-oxadiazol-2-ylthio)methyl)-1H-1,2,3-triazol-1-yl)benzoic acid] |  |  | 10 ± 0.40 | 10 |  |  | 166 to 168 | 3.9 | 5.8 | 5.3 |  | 3.98 ± 1.1 | 
6 | Cc1ccc(C(C)C)c(OCc2nnc(SCc3cn(-c4ccccc4O)nn3)o2)c1 [Compound 9, 2-(4-((5-((2-isopropyl-5-methylphenoxy)methyl)-1,3,4-oxadiazol-2-ylthio)methyl)-1H-1,2,3-triazol-1-yl)phenol] | 12 ± 0.36 | 12 | 12 ± 0.34 | 12 | 10 ± 0.032 | 10 | 86 to 88 | 1.1 | 2.6 | 1.4 | 20 | 1.95 ± 0.9 | 17
7 | Cc1ccc(C(C)C)c(OCc2nnc(SCc3cn(-c4ccccc4Cl)nn3)o2)c1 [Compound 10, 4-((5-((2-isopropyl-5-methylphenoxy)methyl)-1,3,4-oxadiazol-2-ylthio)methyl)-1-(2-chlorophenyl)-1H-1,2,3-triazole] |  |  |  |  |  |  | 90 to 92 | 1.3 | 3.8 | 2.5 |  | 2.18 ± 1.7 | 15
8 | Cc1ccc(C(C)C)c(OCc2nnc(SCc3cn(-c4cccc(Cl)c4)nn3)o2)c1 [Compound 11, 4-((5-((2-isopropyl-5-methylphenoxy)methyl)-1,3,4-oxadiazol-2-ylthio)methyl)-1-(3-chlorophenyl)-1H-1,2,3-triazole] |  |  |  |  |  |  | 92 to 94 | 4.9 | 16.3 | 18.6 |  | 4.24 ± 0.8 | 
9 | Cc1ccc(C(C)C)c(OCc2nnc(SCc3cn(-c4ccc(Cl)cc4Cl)nn3)o2)c1 [Compound 12, 4-((5-((2-isopropyl-5-methylphenoxy)methyl)-1,3,4-oxadiazol-2-ylthio)methyl)-1-(2,4-dichlorophenyl)-1H-1,2,3-triazole] | 10 ± 0.38 | 10 |  |  | 12 ± 0.036 | 12 | 84 to 86 | 59.4 | 47.3 | 40.6 |  |  | 
10 | Cc1ccc(C(C)C)c(OCc2nnc(SCc3cn(-c4ccc(Br)cc4)nn3)o2)c1 [Compound 13, 4-((5-((2-isopropyl-5-methylphenoxy)methyl)-1,3,4-oxadiazol-2-ylthio)methyl)-1-(4-bromophenyl)-1H-1,2,3-triazole] | 11 ± 0.34 | 11 |  |  |  |  | 114 to 116 | 65.3 | 78.7 | 69.4 |  |  | 
11 | Cc1ccc(C(C)C)c(OCc2nnc(SCc3cn(-c4cccc(Br)c4)nn3)o2)c1 [Compound 14, 4-((5-((2-isopropyl-5-methylphenoxy)methyl)-1,3,4-oxadiazol-2-ylthio)methyl)-1-(3-bromophenyl)-1H-1,2,3-triazole] | 9 ± 0.32 | 9 |  |  |  |  | 72 to 74 | 41.8 | 32.8 | 23.7 |  |  | 
12 | Cc1ccc(C(C)C)c(OCc2nnc(SCc3cn(-c4ccc(F)cc4)nn3)o2)c1 [Compound 15, 4-((5-((2-isopropyl-5-methylphenoxy)methyl)-1,3,4-oxadiazol-2-ylthio)methyl)-1-(4-florophenyl)-1H-1,2,3-triazole] |  |  |  |  |  |  | 118 to 120 | 23.2 | 31.4 | 49.2 |  |  | 
13 | Cc1ccc(C(C)C)c(OCc2nnc(SCc3cn(-c4ccc(F)cc4F)nn3)o2)c1 [Compound 16, 4-((5-((2-isopropyl-5-methylphenoxy)methyl)-1,3,4-oxadiazol-2-ylthio)methyl)-1-(2,4-diflorophenyl)-1H-1,2,3-triazole] | 14 ± 0.34 | 14 | 15±0.38 | 15 |  |  | 130 to 132 | 34.5 | 56.2 | 58.3 |  |  | 
14 | Cc1ccc(C(C)C)c(OCc2nnc(SCc3cn(C(=O)Nc4ccccc4C)nn3)o2)c1 [Compound 17, 4-((5-((2-isopropyl-5-methylphenoxy)methyl)-1,3,4-oxadiazol-2-ylthio)methyl)-N-o-tolyl-1H-1,2,3-triazole-1-carboxamide] | 12 ± 0.32 | 12 | 12 ± 0.34 | 12 |  |  | 124 to 126 | 9.39 | 17.3 | 39.1 |  |  | 
15 | Cc1ccc(C(C)C)c(OCc2nnc(S(=O)(=O)Cc3cn(-c4cccc(Br)c4)nn3)o2)c1 [Compound 18, 4-((5-((2-isopropyl-5-methylphenoxy)methyl)-1,3,4-oxadiazol-2-ylsulfonyl)methyl)-1-(3-bromophenyl)-1H-1,2,3-triazole] |  |  |  |  |  |  | 98 to 100 | 98.2 | 118 | 95.7 |  |  | 
16 | COc1cccc2c1C(=O)c1c(O)c3c(c(O)c1C2=O)C[C@@](O)(C(=O)CO)C[C@@H]3O[C@H]1C[C@H](N)[C@H](O)[C@H](C)O1 [Dox, doxorubicin, reference compound] |  |  |  |  |  |  |  | 1.2 | 2.5 | 1.8 |  |  | 
17 | OC(Cn1cncn1)(Cn1cncn1)c1ccc(F)cc1F [Fluconazole, reference compound] |  |  |  |  |  | 16 ± 0.6 |  |  |  |  |  |  | 
18 | CO[C@@H]1[C@@H](OC(N)=O)[C@@H](O)[C@H](Oc2ccc3c(O)c(NC(=O)c4ccc(O)c(CC=C(C)C)c4)c(=O)oc3c2C)OC1(C)C [Novobiocin, reference compound] |  |  |  | 10 ± 0.24 |  |  |  |  |  |  |  |  | 
19 | Nc1nc2[nH]cc(CCc3ccc(C(=O)N[C@@H](CCC(=O)O)C(=O)O)cc3)c2c(=O)[nH]1 [Pemetrexed, reference compound] |  |  |  |  |  |  |  |  |  |  |  | 7.26 ± 1.1 | 
